Data from PubChem BioAssay (NCI).
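How tested: cells in 96-well plates exposed to compound for 48 hours at five concentrations. GI50: concentration for 50% inhibition of growth. TGI marks complete inhibition of growth.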

Columns and labels:
Test in all cases: NCI tumour cell line growth inhibition, 48 h
A498 renal = system: A498 renal
HL-60(TB) leukemia = system: HL-60(TB) leukemia
HOP-92 NSCLC = system: HOP-92 NSCLC
K-562 leukemia = system: K-562 leukemia
NCI/ADR-RES ovarian = system: NCI/ADR-RES ovarian
SF-268 CNS = system: SF-268 CNS
SK-MEL-5 melanoma = system: SK-MEL-5 melanoma
SN12C renal = system: SN12C renal
UACC-62 melanoma = system: UACC-62 melanoma
OVCAR-4 ovarian = system: OVCAR-4 ovarian

| SMILES | TGI (A498 renal) [µM] | TGI (HL-60(TB) leukemia) [µM] | TGI (HOP-92 NSCLC) [µM] | TGI (K-562 leukemia) [µM] | TGI (NCI/ADR-RES ovarian) [µM] | TGI (SF-268 CNS) [µM] | TGI (SK-MEL-5 melanoma) [µM] | TGI (SN12C renal) [µM] | TGI (UACC-62 melanoma) [µM] | GI50 (A498 renal) [µM] | GI50 (HOP-92 NSCLC) [µM] | GI50 (K-562 leukemia) [µM] | GI50 (NCI/ADR-RES ovarian) [µM] | GI50 (OVCAR-4 ovarian) [µM] | TGI (OVCAR-4 ovarian) [µM] | GI50 (SF-268 CNS) [µM] | GI50 (SK-MEL-5 melanoma) [µM] | GI50 (SN12C renal) [µM] | GI50 (UACC-62 melanoma) [µM] | GI50 (HL-60(TB) leukemia) [µM] |
| --- | --- | --- | --- | --- | --- | --- | --- | --- | --- | --- | --- | --- | --- | --- | --- | --- | --- | --- | --- | --- |
| C[C@@H]1C[C@H]2CC[C@H](O2)[C@H](C)C(=O)O[C@@H](C)C[C@@H]2CC[C@@H](O2)[C@@H](C)C(=O)O[C@H](C)C[C@H]2CC[C@H](O2)[C@H](C)C(=O)O[C@@H](C)C[C@@H]2CC[C@@H](O2)[C@@H](C)C(=O)O1 | > 19.7 | 0.536 | 0.524 | > 33.8 | 21 | > 51.4 | 0.401 | 18.9 | > 61.3 | – | – | – | – | – | – | – | – | – | – | – |
| CCCCCCCCCCCCCCCCN1CC2CCCCC2C1 (stereo not given) | 30.6 | – | 6.52 | 11.2 | 16.8 | > 100 | 19.5 | 21.3 | 21.1 | 16.2 | 2.38 | 3.54 | 4.56 | 11.9 | 25.9 | 69.2 | 5.84 | 8.26 | 8.1 | – |
| COc1ccc(/C=C2\CCCC3=C2N=C2SC(C)=NN2C3c2ccc(OC)c(OC)c2)cc1OC (stereo not given) | 86.3 | 36 | 52 | > 100 | > 100 | > 100 | > 100 | > 100 | 45.6 | 2 | 10.6 | 3.98 | 4.71 | – | – | 18.2 | 6.27 | 14 | 4.68 | 3.97 |
| COc1ccc(-c2ccc(/C=N/n3c(COc4ccc(Cl)cc4Cl)nn(CN4CCOCC4)c3=S)o2)c([N+](=O)[O-])c1 | – | 41.1 | 27.6 | 46.6 | 58.7 | > 100 | – | 67.7 | > 100 | – | 0.829 | 18.2 | 21.1 | 21.7 | 78.8 | 28.6 | – | 24.5 | 87.6 | 19.1 |
| CC#C[C@]1(O)CC[C@H]2[C@@H]3CCC4=CC(=O)CCC4=C3[C@@H](c3ccc4c(c3)OCO4)C[C@@]21C | 268 | 399 | 131 | – | > 1000 | 481 | 199 | 464 | 204 | 88.3 | 17.7 | – | 92.4 | 61.1 | 989 | 79.1 | 66.1 | 83.2 | 50 | 47.5 |
| CCCCCCCCN=C(N)c1ccc(N2CCN(c3ccc(C(N)=NCCCCCCCC)cc3)CC2)cc1 | – | 4.66 | > 50 | > 50 | > 50 | 5.91 | 2.45 | 3.05 | 8.44 | – | 14.9 | 1.46 | > 50 | 2.35 | 14.9 | 1.85 | 1.05 | 1.09 | 1.92 | 1.17 |
| COc1ccc(OC)c(/C=C2\SC(=S)NC2=O)c1 | – | > 100 | 55.4 | > 100 | 87.5 | > 100 | 49.2 | 77.4 | 53.4 | – | 16 | 42.5 | 25.4 | 62.9 | > 100 | 31.4 | 21.2 | 24.8 | 17.7 | 58 |
